Earlier results on two compounds are cited in patent US20070037707A1, “Plant growth regulator formulations” (HELENA HOLDING COMPANY, priority 2005, published 2007).

Test in data set [1]: not given
This is another data set of the same source.

A further data set concerns organically grown cotton. To be noted: used alone; compared with conventional chemistry like (2-chloroethyl) phosphonic acid.

Regarding `O=P(O)(O)CCCl` [(2-chloroethyl)phosphonic acid], under “according to the MSDS sheet for a formulated product”, the “pH of the pure product” value is recorded as 1.7. Under “at higher pH decomposes and liberates ethylene, Pesticide Manual”, the “pH range in which stable” value is “below 3.5”. For the same compound, the water solubility entry in data set [1] is reported as “water soluble”.

Regarding `O=C(O)CC(O)(CC(=O)O)C(=O)O` [Citric acid], the “effectiveness as cotton defoliant” value in the data set on organically grown cotton was “not as effective”.
